We go through three compounds from PMC6494831, “Drug-like Fragments Inhibit agr-Mediated Virulence Expression in Staphylococcus aureus” (Scientific Reports, 2019).

Structures are written as SMILES. Like-named read-outs stand apart in the source and are kept apart here.

In the test the target is AgrA (Staphylococcus aureus, UniProt P0A0I7). Put plainly: ITC with purified AgrAC, one-site fit, N fixed to […]. The class given is binding.
Sequence of AgrA (P0A0I7 137-238): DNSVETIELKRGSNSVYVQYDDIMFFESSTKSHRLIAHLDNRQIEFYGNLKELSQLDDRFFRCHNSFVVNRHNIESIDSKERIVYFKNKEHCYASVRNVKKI

One may read the Kd as the constant that tells how readily two partners part at equilibrium. For the compound `O=C(O)C1c2ccccc2Oc2ccccc21` [compound 1, 9H-xanthene-9-carboxylic acid], the Kd is 485 ± 39.3 µM. In turn, `Cc1ccc(-c2nc(C(=O)O)cs2)cc1` [compound 2, 2-(4-methylphenyl)-1,3-thiazole-4-carboxylic acid] yielded a Kd of 417 ± 62.9 µM. With `Cc1cc(O)cc(C)c1C#N` [compound 3, 4-hydroxy-2,6-dimethylbenzonitrile], the Kd (read-out: Kd) turned out to be 110 ± 45.6 µM.
